From ChEMBL document CHEMBL4393657, “Tetrazole hybrids and their antifungal activities” (2019)
In brackets after ≈: the same amount, converted by molar mass.

Tests used:
Format in all cases: functional
[1] = tested on: Candida albicans; experiment: Antifungal activity against Candida albicans assessed as reduction in fungal cell growth incubated for 24 and 72 hrs by cup plate method
[2] = tested on: Aspergillus flavus; experiment: Antifungal activity against Aspergillus flavus assessed as reduction in fungal cell growth incubated for 24 and 72 hrs by cup plate method
[3] = tested on: Fusarium oxysporum; experiment: Antifungal activity against Fusarium oxysporum assessed as reduction in fungal cell growth incubated for 24 and 72 hrs by cup plate method
[4] = tested on: Cryptococcus neoformans; experiment: Antifungal activity against Cryptococcus neoformans LA314 assessed as reduction in fungal cell growth incubated for 48 hrs by broth microdilution method; conditions: LA314, 48 h
[5] = tested on: Nakaseomyces glabratus; experiment: Antifungal activity against Candida glabrata assessed as reduction in fungal cell growth incubated for 48 hrs by broth microdilution method
[6] = tested on: Candida parapsilosis; experiment: Antifungal activity against Candida parapsilosis ATCC 22019 assessed as reduction in fungal cell growth incubated for 48 hrs by broth microdilution method; conditions: Lodderomyces parapsilosis, ATCC 22019, 48 h
[7] = tested on: Pichia kudriavzevii; experiment: Antifungal activity against Candida krusei assessed as reduction in fungal cell growth incubated for 48 hrs by broth microdilution method
[8] = tested on: Candida albicans; experiment: Antifungal activity against Candida albicans assessed as reduction in fungal cell growth incubated for 48 hrs by broth microdilution method
[9] = tested on: Candida tropicalis; experiment: Antifungal activity against Candida tropicalis assessed as reduction in fungal cell growth incubated for 48 hrs by broth microdilution method
[10] = tested on: Aspergillus niger; experiment: Antifungal activity against Aspergillus niger assessed as reduction in fungal cell growth incubated for 72 hrs by broth microdilution method

Row | SMILES | MIC [1] | MIC [2] | MIC [3] | MIC [4] | MIC [5] | MIC [6] | MIC [7] | MIC [8] | MIC [9] | MIC [10]
1 | Cc1ccc2c(c1)cc(C1CC(c3cc(Br)ccc3O)=NN1)c1nnnn12 (stereo not given) | 25 to 100 µg/mL (≈ 59.1 to 236 µM) | 25 to 100 µg/mL (≈ 59.1 to 236 µM) | 25 to 100 µg/mL (≈ 59.1 to 236 µM) |  |  |  |  |  |  | 
2 | CCOC(=O)C(C#N)C(c1cc2ccc(OC)cc2n2nnnc12)P(=O)(OCC)OCC (stereo not given) | 10 to 25 µg/mL (≈ 21.7 to 54.2 µM) | 10 to 25 µg/mL (≈ 21.7 to 54.2 µM) | 10 to 25 µg/mL (≈ 21.7 to 54.2 µM) |  |  |  |  |  |  | 
3 | Oc1ccc(Br)cc1C1=NNC(c2cc3ccccc3n3nnnc23)C1 (stereo not given) | 25 to 100 µg/mL (≈ 61.1 to 244 µM) | 25 to 100 µg/mL (≈ 61.1 to 244 µM) | 25 to 100 µg/mL (≈ 61.1 to 244 µM) |  |  |  |  |  |  | 
4 | COc1cccc2c1cc(/C=C/C(=O)c1cc(Br)ccc1O)c1nnnn12 | 25 to 100 µg/mL (≈ 58.8 to 235 µM) | 25 to 100 µg/mL (≈ 58.8 to 235 µM) | 25 to 100 µg/mL (≈ 58.8 to 235 µM) |  |  |  |  |  |  | 
5 | COc1ccc2cc(C3CC(c4cc(Br)ccc4O)=NO3)c3nnnn3c2c1 (stereo not given) | 25 µg/mL (≈ 56.8 µM) | 25 µg/mL (≈ 56.8 µM) | 25 to 100 µg/mL (≈ 56.8 to 227 µM) |  |  |  |  |  |  | 
6 | CCOC(=O)C(C#N)C(c1cc2ccc(C)cc2n2nnnc12)P(=O)(OCC)OCC (stereo not given) | 10 to 25 µg/mL (≈ 22.5 to 56.1 µM) | 10 to 25 µg/mL (≈ 22.5 to 56.1 µM) | 10 to 25 µg/mL (≈ 22.5 to 56.1 µM) |  |  |  |  |  |  | 
7 | CCOC(=O)C(C#N)C(c1cc2ccc(CC)cc2n2nnnc12)P(=O)(OCC)OCC (stereo not given) | 10 to 25 µg/mL (≈ 21.8 to 54.4 µM) | 10 to 25 µg/mL (≈ 21.8 to 54.4 µM) | 10 to 25 µg/mL (≈ 21.8 to 54.4 µM) |  |  |  |  |  |  | 
8 | COc1ccccc1N1CCN(CCc2nnnn2[C@@H](C)[C@](O)(Cn2cncn2)c2ccc(F)cc2F)CC1 |  |  |  | 0.12 to 16 µg/mL (≈ 0.222 to 29.7 µM) | 0.12 to 16 µg/mL (≈ 0.222 to 29.7 µM) | 0.12 to 16 µg/mL (≈ 0.222 to 29.7 µM) | 0.12 to 16 µg/mL (≈ 0.222 to 29.7 µM) | 0.12 to 16 µg/mL (≈ 0.222 to 29.7 µM) | 0.12 to 16 µg/mL (≈ 0.222 to 29.7 µM) | 0.12 to 16 µg/mL (≈ 0.222 to 29.7 µM)
9 | CCCCOc1ccccc1N1CCN(CCc2nnnn2C(C)C(O)(Cn2cncn2)c2ccc(F)cc2F)CC1 (stereo not given) |  |  |  | 0.5 to 16 µg/mL (≈ 0.86 to 27.5 µM) | 0.5 to 16 µg/mL (≈ 0.86 to 27.5 µM) | 0.5 to 16 µg/mL (≈ 0.86 to 27.5 µM) | 0.5 to 16 µg/mL (≈ 0.86 to 27.5 µM) | 0.5 to 16 µg/mL (≈ 0.86 to 27.5 µM) | 0.5 to 16 µg/mL (≈ 0.86 to 27.5 µM) | 0.5 to 16 µg/mL (≈ 0.86 to 27.5 µM)
10 | OC(Cn1cncn1)(Cn1nnnc1CCN1CCN(c2ccccc2Cl)CC1)c1ccc(F)cc1F (stereo not given) |  |  |  | 0.5 to 16 µg/mL (≈ 0.943 to 30.2 µM) | 0.5 to 16 µg/mL (≈ 0.943 to 30.2 µM) | 0.5 to 16 µg/mL (≈ 0.943 to 30.2 µM) | 0.5 to 16 µg/mL (≈ 0.943 to 30.2 µM) | 0.5 to 16 µg/mL (≈ 0.943 to 30.2 µM) | 0.5 to 16 µg/mL (≈ 0.943 to 30.2 µM) | 0.5 to 16 µg/mL (≈ 0.943 to 30.2 µM)
11 | CC(n1nnnc1CCN1CCN(c2ccc(F)cc2)CC1)C(O)(Cn1cncn1)c1ccc(F)cc1F (stereo not given) |  |  |  | 0.5 to 16 µg/mL (≈ 0.948 to 30.3 µM) | 0.5 to 16 µg/mL (≈ 0.948 to 30.3 µM) | 0.5 to 16 µg/mL (≈ 0.948 to 30.3 µM) | 0.5 to 16 µg/mL (≈ 0.948 to 30.3 µM) | 0.5 to 16 µg/mL (≈ 0.948 to 30.3 µM) | 0.5 to 16 µg/mL (≈ 0.948 to 30.3 µM) | 0.5 to 16 µg/mL (≈ 0.948 to 30.3 µM)
12 | OC(Cn1cncn1)(Cn1nnnc1CCN1CCN(c2ccccn2)CC1)c1ccc(F)cc1F (stereo not given) |  |  |  | 0.5 to 16 µg/mL (≈ 1.01 to 32.2 µM) | 0.5 to 16 µg/mL (≈ 1.01 to 32.2 µM) | 0.5 to 16 µg/mL (≈ 1.01 to 32.2 µM) | 0.5 to 16 µg/mL (≈ 1.01 to 32.2 µM) | 0.5 to 16 µg/mL (≈ 1.01 to 32.2 µM) | 0.5 to 16 µg/mL (≈ 1.01 to 32.2 µM) | 0.5 to 16 µg/mL (≈ 1.01 to 32.2 µM)
13 | COc1ccc(N2CCN(CCc3nnn([C@@H](C)[C@](O)(Cn4cncn4)c4ccc(F)cc4F)n3)CC2)cc1 |  |  |  | 0.25 to 16 µg/mL (≈ 0.463 to 29.7 µM) | 0.25 to 16 µg/mL (≈ 0.463 to 29.7 µM) | 0.25 to 16 µg/mL (≈ 0.463 to 29.7 µM) | 0.25 to 16 µg/mL (≈ 0.463 to 29.7 µM) | 0.25 to 16 µg/mL (≈ 0.463 to 29.7 µM) | 0.25 to 16 µg/mL (≈ 0.463 to 29.7 µM) | 0.25 to 16 µg/mL (≈ 0.463 to 29.7 µM)
14 | CC(n1nnc(CCN2CCN(c3ccc(F)cc3)CC2)n1)C(O)(Cn1cncn1)c1ccc(F)cc1F (stereo not given) |  |  |  | 1 to 16 µg/mL (≈ 1.9 to 30.3 µM) | 1 to 16 µg/mL (≈ 1.9 to 30.3 µM) | 1 to 16 µg/mL (≈ 1.9 to 30.3 µM) | 1 to 16 µg/mL (≈ 1.9 to 30.3 µM) | 1 to 16 µg/mL (≈ 1.9 to 30.3 µM) | 1 to 16 µg/mL (≈ 1.9 to 30.3 µM) | 1 to 16 µg/mL (≈ 1.9 to 30.3 µM)
15 | C[C@H](n1nnc(CCN2CCN(c3ccccc3)CC2)n1)[C@](O)(Cn1cncn1)c1ccc(F)cc1F |  |  |  | 0.25 to 16 µg/mL (≈ 0.491 to 31.4 µM) | 0.25 to 16 µg/mL (≈ 0.491 to 31.4 µM) | 0.25 to 16 µg/mL (≈ 0.491 to 31.4 µM) | 0.25 to 16 µg/mL (≈ 0.491 to 31.4 µM) | 0.25 to 16 µg/mL (≈ 0.491 to 31.4 µM) | 0.25 to 16 µg/mL (≈ 0.491 to 31.4 µM) | 0.25 to 16 µg/mL (≈ 0.491 to 31.4 µM)
16 | O=[N+]([O-])c1ccc(N2CCN(CCc3nnn(CC(O)(Cn4cncn4)c4ccc(F)cc4F)n3)CC2)cc1 (stereo not given) |  |  |  | 1 to 16 µg/mL (≈ 1.85 to 29.6 µM) | 1 to 16 µg/mL (≈ 1.85 to 29.6 µM) | 1 to 16 µg/mL (≈ 1.85 to 29.6 µM) | 1 to 16 µg/mL (≈ 1.85 to 29.6 µM) | 1 to 16 µg/mL (≈ 1.85 to 29.6 µM) | 1 to 16 µg/mL (≈ 1.85 to 29.6 µM) | 1 to 16 µg/mL (≈ 1.85 to 29.6 µM)
17 | C[C@H](n1nnc(CCN2CCN(c3ccccc3Cl)CC2)n1)[C@](O)(Cn1cncn1)c1ccc(F)cc1F |  |  |  | 0.25 to 16 µg/mL (≈ 0.46 to 29.4 µM) | 0.25 to 16 µg/mL (≈ 0.46 to 29.4 µM) | 0.25 to 16 µg/mL (≈ 0.46 to 29.4 µM) | 0.25 to 16 µg/mL (≈ 0.46 to 29.4 µM) | 0.25 to 16 µg/mL (≈ 0.46 to 29.4 µM) | 0.25 to 16 µg/mL (≈ 0.46 to 29.4 µM) | 0.25 to 16 µg/mL (≈ 0.46 to 29.4 µM)
18 | OC(Cn1cncn1)(Cn1nnc(CCN2CCN(c3c(Cl)cccc3Cl)CC2)n1)c1ccc(F)cc1F (stereo not given) |  |  |  | 1 to 16 µg/mL (≈ 1.77 to 28.3 µM) | 1 to 16 µg/mL (≈ 1.77 to 28.3 µM) | 1 to 16 µg/mL (≈ 1.77 to 28.3 µM) | 1 to 16 µg/mL (≈ 1.77 to 28.3 µM) | 1 to 16 µg/mL (≈ 1.77 to 28.3 µM) | 1 to 16 µg/mL (≈ 1.77 to 28.3 µM) | 1 to 16 µg/mL (≈ 1.77 to 28.3 µM)
19 | COc1ccc(N2CCN(CCc3nnn(C(C)C(O)(Cn4cncn4)c4ccc(F)cc4F)n3)CC2)cc1 (stereo not given) |  |  |  | 1 to 16 µg/mL (≈ 1.85 to 29.7 µM) | 1 to 16 µg/mL (≈ 1.85 to 29.7 µM) | 1 to 16 µg/mL (≈ 1.85 to 29.7 µM) | 1 to 16 µg/mL (≈ 1.85 to 29.7 µM) | 1 to 16 µg/mL (≈ 1.85 to 29.7 µM) | 1 to 16 µg/mL (≈ 1.85 to 29.7 µM) | 1 to 16 µg/mL (≈ 1.85 to 29.7 µM)
